Patent publication US10077261B2, “Imidazolin-5-one derivative useful as FASN inhibitors for the treatment of cancer” (Janssen Pharmaceutica NV, priority 2012, dated 2018)

Experiments:
[1] = target: Fatty Acid Synthase Keto-reductase Domain (FASN KR) (Homo sapiens, UniProt P49327); assay: Fatty Acid Synthase keto-reductase domain (FASN KR) inhibition, NADPH oxidation at 340 nm
Description: After 20 minutes incubation at room temperature the plate was measured again (T2).
The decrease in absorbance was calculated as (Absorbance before incubation T1)−(Absorbance following incubation T2).
A plot of Controlmin versus test compound concentration was fitted to a 4-parameter logistic curve using a non-linear least squares regression method.

[2] = target: T1, hFASN enzyme (full length) (Homo sapiens, UniProt P49327); assay: Fatty Acid Synthase (FASN) inhibition scintillation proximity assay; type: biochemical; conditions: for inhibition at 10 µM: read-out: Human FASN % inhibition @ 10 μM, 10 μM test compound; for IC50: read-out: Human FASN pIC50 (converted)
T1 construct: 10 μL hFASN enzyme (full length, 300 ng, purified in house); made in house
T1 sequence (P49327 whole entry): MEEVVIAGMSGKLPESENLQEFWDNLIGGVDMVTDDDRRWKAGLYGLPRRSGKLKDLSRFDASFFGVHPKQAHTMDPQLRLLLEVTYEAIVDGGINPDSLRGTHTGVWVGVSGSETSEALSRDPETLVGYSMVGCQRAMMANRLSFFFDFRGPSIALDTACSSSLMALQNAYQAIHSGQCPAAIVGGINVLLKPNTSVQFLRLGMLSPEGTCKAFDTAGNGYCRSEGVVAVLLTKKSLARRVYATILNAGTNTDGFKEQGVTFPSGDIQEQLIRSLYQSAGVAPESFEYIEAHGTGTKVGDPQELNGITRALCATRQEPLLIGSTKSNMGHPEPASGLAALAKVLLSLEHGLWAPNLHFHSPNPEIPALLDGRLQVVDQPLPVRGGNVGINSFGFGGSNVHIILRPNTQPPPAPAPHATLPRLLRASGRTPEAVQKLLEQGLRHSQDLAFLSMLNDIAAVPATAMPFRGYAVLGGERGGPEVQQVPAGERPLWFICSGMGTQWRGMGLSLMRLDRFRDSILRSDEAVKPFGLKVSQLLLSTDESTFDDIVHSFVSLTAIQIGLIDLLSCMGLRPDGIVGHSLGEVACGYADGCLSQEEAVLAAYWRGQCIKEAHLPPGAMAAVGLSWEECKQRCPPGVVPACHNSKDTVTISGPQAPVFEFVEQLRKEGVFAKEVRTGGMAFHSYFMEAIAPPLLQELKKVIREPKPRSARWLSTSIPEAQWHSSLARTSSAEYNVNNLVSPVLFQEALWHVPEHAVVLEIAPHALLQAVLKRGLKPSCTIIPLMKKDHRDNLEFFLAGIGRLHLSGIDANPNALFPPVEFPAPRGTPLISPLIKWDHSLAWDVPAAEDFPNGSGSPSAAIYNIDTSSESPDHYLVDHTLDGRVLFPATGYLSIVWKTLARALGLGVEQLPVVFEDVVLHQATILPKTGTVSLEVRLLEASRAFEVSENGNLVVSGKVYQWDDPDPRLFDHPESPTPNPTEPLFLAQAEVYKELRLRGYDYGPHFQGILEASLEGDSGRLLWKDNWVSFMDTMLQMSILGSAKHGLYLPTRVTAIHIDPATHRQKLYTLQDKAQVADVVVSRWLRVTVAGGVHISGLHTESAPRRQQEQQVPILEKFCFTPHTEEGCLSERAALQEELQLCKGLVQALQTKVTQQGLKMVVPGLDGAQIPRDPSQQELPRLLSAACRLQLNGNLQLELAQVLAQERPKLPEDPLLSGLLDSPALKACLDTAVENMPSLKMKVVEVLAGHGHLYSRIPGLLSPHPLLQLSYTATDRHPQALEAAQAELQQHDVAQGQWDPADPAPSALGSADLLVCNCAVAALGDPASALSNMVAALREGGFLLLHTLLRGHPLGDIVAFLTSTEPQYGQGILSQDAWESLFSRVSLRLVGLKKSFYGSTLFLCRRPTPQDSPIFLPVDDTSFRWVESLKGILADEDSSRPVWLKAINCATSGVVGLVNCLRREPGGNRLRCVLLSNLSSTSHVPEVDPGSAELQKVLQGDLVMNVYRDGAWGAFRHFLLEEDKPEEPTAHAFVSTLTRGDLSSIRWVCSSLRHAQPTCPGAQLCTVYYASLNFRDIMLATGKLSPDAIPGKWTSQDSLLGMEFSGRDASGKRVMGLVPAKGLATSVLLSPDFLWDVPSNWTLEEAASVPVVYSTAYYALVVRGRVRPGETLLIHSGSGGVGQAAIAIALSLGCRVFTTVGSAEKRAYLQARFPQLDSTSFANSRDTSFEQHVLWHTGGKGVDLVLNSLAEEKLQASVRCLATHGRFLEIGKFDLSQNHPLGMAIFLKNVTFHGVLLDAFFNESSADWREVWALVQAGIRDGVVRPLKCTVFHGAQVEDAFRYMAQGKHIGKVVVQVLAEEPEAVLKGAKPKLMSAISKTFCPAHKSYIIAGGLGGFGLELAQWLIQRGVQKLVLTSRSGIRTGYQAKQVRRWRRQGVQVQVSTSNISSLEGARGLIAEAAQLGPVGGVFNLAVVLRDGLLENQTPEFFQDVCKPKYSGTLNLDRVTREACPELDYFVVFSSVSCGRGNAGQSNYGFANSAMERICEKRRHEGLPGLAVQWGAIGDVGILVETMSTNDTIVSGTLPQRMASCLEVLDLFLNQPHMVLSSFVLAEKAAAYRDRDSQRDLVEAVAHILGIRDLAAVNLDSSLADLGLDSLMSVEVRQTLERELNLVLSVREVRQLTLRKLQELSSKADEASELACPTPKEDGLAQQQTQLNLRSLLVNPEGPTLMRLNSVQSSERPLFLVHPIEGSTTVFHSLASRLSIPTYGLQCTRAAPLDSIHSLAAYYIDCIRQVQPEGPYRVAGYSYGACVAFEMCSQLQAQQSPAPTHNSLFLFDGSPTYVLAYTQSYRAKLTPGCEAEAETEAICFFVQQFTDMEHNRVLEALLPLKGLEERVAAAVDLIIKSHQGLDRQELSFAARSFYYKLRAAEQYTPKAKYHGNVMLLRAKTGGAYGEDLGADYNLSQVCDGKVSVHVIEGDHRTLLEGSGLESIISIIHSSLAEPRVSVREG
In short: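 Scintillation proximity format: in-house full-length enzyme, 300 ng per well, pH 7.5 phosphate/DTT buffer, ³H-acetyl-CoA and malonyl-CoA. Emission counted on LEADseeker at 610 nm at least 24 h after stopping.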

[3] = tested on: LNCaP-Vancouver prostate cells; assay: In vitro LNCaP Vancouver prostate cell proliferation assay in lipid reduced medium; type: cell-based; conditions: read-out: pIC50 LNCaP_Vancouver prostate cell (converted)
A2780 ovarian cells [4] = assay: A2780 ovarian cell proliferation assay in lipid reduced medium, with palmitate (MTT); type: cell-based; conditions: Homo sapiens, A2780, 96 h; read-out: pIC50 A2780 Ovarian Cell, With Palmitate (converted)
In short: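 In this palmitate-supplemented format, compound dilutions (30 μM down to 0.01 μM) are added to cells in lipid-reduced serum with 25 μM palmitate, 0.2% fatty-acid-free BSA and 0.25% ethanol. After four days (96 h) MTT absorbance at 544 nm is recorded and fitted by minimum sum of squares.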

A2780 ovarian cells [5] = assay: A2780 ovarian cell proliferation assay in lipid reduced medium, without palmitate (MTT); type: cell-based; conditions: Homo sapiens, A2780, 96 h; read-out: pIC50 A2780 Ovarian Cell, Without Palmitate (converted)
[6] = tested on: PC-3M-Luc-C6 prostate cells; assay: In vitro PC-3M-Luc-C6 prostate cell proliferation assay in lipid reduced medium; type: cell-based; conditions: 96 h, read-out: pIC50 PC-3M-Luc-C6 prostate cell (converted)

Fatty Acid Synthase Keto-reductase Domain (FASN KR), sequence (P49327 whole entry, the tested form may be a part): as the sequence (P49327 whole entry) above

IC50 [1] | inhibition at 10 µM [2] | IC50 [2] | IC50 [3] | IC50 (A2780 ovarian cells [4]) | IC50 (A2780 ovarian cells [5]) | IC50 [6] | FASN Keto-reductase Domain pIC50 ([1]; NADPH oxidation, absorbance at 340 nm, ethyl acetoacetate substrate) | Human FASN pIC50 ([2]; hFASN enzyme full length, scintillation proximity assay, "~" = standard error of pIC50 larger than 0.5) | SMILES
75.9 nM | 101% | 37.2 nM | 100 nM | > 10000 nM | ~10.5 nM | 19.1 nM | – | – | Cc1cc(-c2ccc3c(cnn3C)c2)ccc1C1=NC2(CC2)C(=O)N1CC1CN(C(=O)C2CCCO2)C1 (stereo in doubt) [compound 206, (S)-5-(2-methyl-4-(1-methyl-1H-indazol-5-yl)phenyl)-6-((1-(tetrahydro-furan-2-carbonyl)azetidin-3-yl)methyl)-4,6-diazaspiro[2.4]hept-4-en-7-one]
155 nM | 101% | 60.3 nM | 912 nM | > 10000 nM | 331 nM | 219 nM | – | – | O=C(C1CC1)N1CC(CN2C(=O)C3(CC3)N=C2c2ccc(-c3ccc4occc4c3)cc2)C1 [compound 49, 5-[4-(1-Benzofuran-5-yl)phenyl]-6-{[1-(cyclopropylcarbonyl)azetidin-3-yl]methyl}-4,6-diazaspiro[2.4]hept-4-en-7-one]
132 nM | 98.7% | 41.7 nM | 263 nM | > 10000 nM | 95.5 nM | 100 nM | – | – | Cn1cc(-c2ccc(-c3ccc(C4=NC5(CC5)C(=O)N4CC4CN(C(=O)C5CC5)C4)cc3)cc2)cn1 [compound 59, 6-{[1-(Cyclopropylcarbonyl)azetidin-3-yl]methyl}-5-[4′-(1-methyl-1H-pyrazol-4-yl)biphenyl-4-yl]-4,6-diazaspiro[2.4]hept-4-en-7-one]
– | 101% | – | 66.1 nM | > 10000 nM | ~13.2 nM | ~24.5 nM | 7.27 | 7.55 | Cn1cc(-c2ccc(-c3ccc(C4=NC5(CC5)C(=O)N4C[C@@H]4CCN(C(=O)C5CC5)C4)cc3)cc2)cn1 [compound 65, (R)-6-((1-(Cyclopropanecarbonyl)pyrrolidin-3-yl)methyl)-5-(4′-(methyl-1H-pyrazol-4-yl)-[1,1′-biphenyl]-4-yl)-4,6-diazaspiro[2.4]hept-4-en-7-one]
34.7 nM | 102% | 34.7 nM | ~33.9 nM | > 10000 nM | ~3.89 nM | 6.46 nM | – | – | Cn1ncc2cc(-c3ccc(C4=NC5(CC5)C(=O)N4C[C@@H]4CCN(C(=O)C5(O)CC5)C4)cc3)ccc21 [compound 200]
603 nM | 98% | 269 nM | 1780 nM | – | – | 501 nM | – | – | Cn1cc(-c2ccc(-c3ccc(C4=NC5(CCOC5)C(=O)N4C[C@@H]4CCN(C(=O)C5CC5)C4)cc3)cc2)cn1 (stereo partly drawn) [compound 676, 3-{[(3R)-1-(Cyclopropylcarbonyl)pyrrolidin-3-yl]methyl}-2-[4′-(1-methyl-1H-pyrazol-4-yl)biphenyl-4-yl]-7-oxa-1,3-diazaspiro[4.4]non-1-en-4-one]
525 nM | 99% | 214 nM | 2950 nM | – | – | 832 nM | – | – | O=C([C@H]1CCCO1)N1CC[C@@H](CN2C(=O)C3(CCOC3)N=C2c2ccc(-c3ccc4occc4c3)cc2)C1 (stereo partly drawn) [compound 688, 2-[4-(1-Benzofuran-5-yl)phenyl]-3-({(3R)-1-[(2R)-tetrahydro-furan-2-ylcarbonyl]pyrrolidin-3-yl}methyl)-7-oxa-1,3-diazaspiro[4.4]non-1-en-4-one]
3240 nM | 99% | 794 nM | 4570 nM | – | – | 1580 nM | – | – | Cn1ncc2cc(-c3ccc(C4=NC5(CCOC5)C(=O)N4C[C@@H]4CCN(C(=O)[C@H]5CCCO5)C4)cc3)ccc21 (stereo partly drawn) [compound 692, 2-[4-(1-Methyl-1H-indazol-5-yl)phenyl]-3-({(3R)-1-[(2R)-tetrahydro-furan-2-ylcarbonyl]pyrrolidin-3-yl}metrhyl)-7-oxa-1,3-diazaspiro[4.4]non-1-en-4-one]
5370 nM | 89% | ~724 nM | > 10000 nM | – | – | 5130 nM | – | – | CC(O)C(=O)N1CC(CN2C(=O)C3(CCOCC3)N=C2c2ccc(-c3ccc4cccnc4c3)cc2)C1 (stereo not shown) [compound 699, 3-{[1-(2-Hydroxypropanoyl)azetidin-3-yl]methyl}-2-(4-quinolin-7-ylphenyl)-8-oxa-1,3-diazaspiro[4.5]dec-1-en-4-one]
6610 nM | 86% | 871 nM | 6920 nM | – | – | ~5750 nM | – | – | O=C([C@H]1CCCO1)N1CC(CN2C(=O)C3(CCOCC3)N=C2c2ccc(-c3ccc4occc4c3)cc2)C1 [compound 704, 2-[4-(1-Benzofuran-5-yl)phenyl]-3-({1-[(2R)-tetrahydro-furan-2-ylcarbonyl]azetidin-3-yl}methyl)-8-oxa-1,3-diazaspiro[4.5]dec-1-en-4-one]
5500 nM | 86% | 724 nM | > 10000 nM | – | – | 5010 nM | – | – | CC(O)C(=O)N1CC(CN2C(=O)C3(CCOC3)N=C2c2ccc(-c3ccc4cccnc4c3)cc2)C1 (stereo not shown) [compound 715, 3-{[1-(2-Hydroxypropanoyl)azetidin-3-yl]methyl}-2-(4-quinolin-7-ylphenyl)-7-oxa-1,3-diazaspiro[4.4]non-1-en-4-one]
6460 nM | 87% | 776 nM | 9120 nM | – | – | 4680 nM | – | – | O=C([C@H]1CCCO1)N1CC(CN2C(=O)C3(CCOC3)N=C2c2ccc(-c3ccc4occc4c3)cc2)C1 (stereo partly drawn) [compound 720, 2-[4-(1-Benzofuran-5-yl)phenyl]-3-({1-[(2R)-tetrahydro-furan-2-ylcarbonyl]azetidin-3-yl}methyl)-7-oxa-1,3-diazaspiro[4.4]non-1-en-4-one]
1100 nM | 98% | 204 nM | 2400 nM | – | – | 575 nM | – | – | COC(=O)N1CC2(C1)N=C(c1ccc(-c3ccc(-c4cnn(C)c4)cc3)cc1)N(C[C@@H]1CCN(C(=O)[C@H]3CCCO3)C1)C2=O [compound 727, Methyl 6-[4′-(1-methyl-1H-pyrazol-4-yl)biphenyl-4-yl]-8-oxo-7-({(3R)-1-[(2R)-tetrahydro-furan-2-ylcarbonyl]pyrrolidin-3-yl}methyl)-2,5,7-triazaspiro[3.4]ect-5-ene-2-carboxylate]
316 nM | 100% | 64.6 nM | 525 nM | – | – | 151 nM | – | – | COC(=O)N1CC2(C1)N=C(c1ccc(-c3ccc4cccnc4c3)cc1)N(C[C@@H]1CCN(C(=O)C3CC3)C1)C2=O [compound 728, Methyl 7-{[(3R)-1-(cyclopropylcarbonyl)pyrrolidin-3-yl]methyl}-8-oxo-6-(4-quinolin-7-ylphenyl)-2,5,7-triazaspiro[3.4]ect-5-ene-2-carboxylate]
355 nM | 102% | 100 nM | ~407 nM | – | – | 97.7 nM | – | – | COC(=O)N1CC2(C1)N=C(c1ccc(-c3ccc4cccnc4c3)cc1)N(C[C@@H]1CCN(C(=O)[C@H]3CCCO3)C1)C2=O [compound 730, Methyl 8-oxo-6-(4-quinolin-7-ylphenyl)-7-({(3R)-1-[(2R)-tetrahydro-furan-2-ylcarbonyl]pyrrolidin-3-yl}methyl)-2,5,7-triazaspiro[3.4]oct-5-ene-2-carboxylate]
537 nM | 96% | 200 nM | 3310 nM | – | – | 1290 nM | – | – | COC(=O)N1CC2(C1)N=C(c1ccc(-c3ccc4occc4c3)cc1)N(C[C@@H]1CCN(C(=O)C3CC3)C1)C2=O [compound 733, Methyl 6-[4-(1-benzofuran-5-yl)phenyl]-7-{[(3R)-1-(cycloprropylcarbonyl)pyrrolidin-3-yl]methyl}-8-oxo-2,5,7-triazaspiro[3.4]oct-5-ene-2-carboxylate]
851 nM | 97% | 135 nM | 3800 nM | – | – | ~912 nM | – | – | COC(=O)N1CC2(C1)N=C(c1ccc(-c3ccc4occc4c3)cc1)N(C[C@@H]1CCN(C(=O)[C@H]3CCCO3)C1)C2=O [compound 735, Methyl 6-[4-(1-benzofuran-5-yl)phenyl]-8-oxo-7-({(3R)-1-[(2T)-tetrahydro-furan-2-ylcarbonyl]pyrrolidin-3-yl}methyl)-2,5,7-triazaspiro[3.4]oct-5-ene-2-carboxylate]
513 nM | 92% | 234 nM | 3800 nM | – | – | ~871 nM | – | – | COC(=O)N1CC2(C1)N=C(c1ccc(-c3ccc4c(cnn4C)c3)cc1)N(C[C@@H]1CCN(C(=O)[C@H]3CCCO3)C1)C2=O [compound 739, Methyl 6-[4-(1-methyl-1H-indazol-5-ylyl)phenyl]-8-oxo-7-({(3R)-1-[(2R)-tetrahydro-furan-2-ylcarbonyl]pyrrolidin-3-yl}methyl)-2,5,7-triazaspiro[3.4]oct-5-ene-2-carboxylate]
